Source: PubChem BioAssay AID248 (DTP/NCI, 2004)
Inconclusive results and toxic doses are left out. Rule as the data show it: active = T/C of 150% or more; inactive = T/C below 125%.

Tested on: L1210 leukemia ip in BDF1 mice, survival T/C
Test: NCI In Vivo Anticancer Drug Screen. Data for tumor model L1210 Leukemia (intraperitoneal) in B6D2F1 (BDF1) mice
Details: endpoint: mean survival time, higher = longer survival
In short: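 Tumor was transplanted into mice, which were then dosed with test compound or vehicle alone. Survival was recorded for each group, and the treated figure was expressed relative to the control figure.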

[1] = dose: 100.0 mg/kg/injection, schedule: Q01DX001 (ip), vehicle: carboxymethylcellulose (CMC)
[2] = dose: 200.0 mg/kg/injection, schedule: Q01DX001 (ip), vehicle: carboxymethylcellulose (CMC)
[3] = dose: 100.0 mg/kg/injection, schedule: Q01DX009 (ip), vehicle: saline
[4] = dose: 200.0 mg/kg/injection, schedule: Q01DX009 (ip), vehicle: saline
[5] = dose: 100.0 mg/kg/injection, schedule: Q01DX001 (ip), vehicle: other
[6] = dose: 200.0 mg/kg/injection, schedule: Q01DX001 (ip), vehicle: other
[7] = dose: 400.0 mg/kg/injection, schedule: Q01DX001 (ip), vehicle: other
[8] = dose: 100.0 mg/kg/injection, schedule: Q04DX002 (ip), vehicle: Klucel (hydroxypropylcellulose) (HPC)
[9] = dose: 200.0 mg/kg/injection, schedule: Q04DX002 (ip), vehicle: Klucel (hydroxypropylcellulose) (HPC)
[10] = dose: 400.0 mg/kg/injection, schedule: Q04DX002 (ip), vehicle: Klucel (hydroxypropylcellulose) (HPC)
[11] = dose: 0.78 mg/kg/injection, schedule: Q01DX009 (ip), vehicle: Klucel (hydroxypropylcellulose) (HPC)
[12] = dose: 1.56 mg/kg/injection, schedule: Q01DX009 (ip), vehicle: Klucel (hydroxypropylcellulose) (HPC)
[13] = dose: 100.0 mg/kg/injection, schedule: Q01DX009 (ip), vehicle: Klucel (hydroxypropylcellulose) (HPC)
[14] = dose: 200.0 mg/kg/injection, schedule: Q01DX009 (ip), vehicle: Klucel (hydroxypropylcellulose) (HPC)
[15] = dose: 100.0 mg/kg/injection, schedule: Q01DX009 (ip), vehicle: saline with Tween-80
[16] = dose: 200.0 mg/kg/injection, schedule: Q01DX009 (ip), vehicle: saline with Tween-80
[17] = dose: 400.0 mg/kg/injection, schedule: Q01DX009 (ip), vehicle: saline with Tween-80

Measured: T/C

NC(N)=N/N=C\c1ccc(/C=N/N=C(N)N)cc1
inactive: dose: 60.0 mg/kg/injection, schedule: Q01DX Z (oral), vehicle: saline 103 % of control | dose: 120.0 mg/kg/injection, schedule: Q01DX Z (oral), vehicle: saline 108 % of control | dose: 240.0 mg/kg/injection, schedule: Q01DX Z (oral), vehicle: saline 101 % of control | dose: 480.0 mg/kg/injection, schedule: Q01DX Z (oral), vehicle: saline 108 % of control

CCCCCCCCCCCCCCCCCC[N+](C)(C)c1nc(Cl)nc(Cl)n1
inactive: dose: 13.0 mg/kg/injection, schedule: Q01DX015 (ip), vehicle: carboxymethylcellulose (CMC) 98 % of control | dose: 25.0 mg/kg/injection, schedule: Q01DX015 (ip), vehicle: carboxymethylcellulose (CMC) 92 % of control | dose: 37.5 mg/kg/injection, schedule: Q04DX003 (ip), vehicle: Klucel (hydroxypropylcellulose) (HPC) 103 % of control | dose: 50.0 mg/kg/injection, schedule: Q01DX015 (ip), vehicle: carboxymethylcellulose (CMC) 93 % of control | dose: 75.0 mg/kg/injection, schedule: Q04DX003 (ip), vehicle: Klucel (hydroxypropylcellulose) (HPC) 97 % of control | [1] 92 % of control | dose: 100.0 mg/kg/injection, schedule: Q01DX015 (ip), vehicle: carboxymethylcellulose (CMC) 93 % of control | [2] 97 % of control

COc1ccc2nc3ccccc3c(N)c2c1
inactive: dose: 5.0 mg/kg/injection, schedule: Q01DX001 (ip), vehicle: saline 100 % of control | dose: 10.0 mg/kg/injection, schedule: Q01DX001 (ip), vehicle: saline 100 % of control | dose: 20.0 mg/kg/injection, schedule: Q01DX001 (ip), vehicle: saline 97 % of control | dose: 40.0 mg/kg/injection, schedule: Q01DX001 (ip), vehicle: saline 90 % of control

COC(C)(C)C(C)O (centres undefined)
inactive: dose: 50.0 mg/kg/injection, schedule: Q01DX009 (ip), vehicle: saline 100 % of control | [3] 96 % of control | [4] 100 % of control

O=C(O)c1ccccc1C(=O)NCCCc1ccccc1
inactive: [5] 98 % of control | [6] 98 % of control | [7] 96 % of control

Cc1ccc(C)c(NC(=O)N2CCN(C)CC2)c1
inactive: [3] 97 % of control | [4] 100 % of control

CCN(CC)CCNc1nc(N)nc2c1nnn2CC
inactive: dose: 100.0 mg/kg/injection, schedule: Q04DX003 (ip), vehicle: gum acacia 93 % of control | dose: 200.0 mg/kg/injection, schedule: Q04DX003 (ip), vehicle: gum acacia 91 % of control

CCOC(=O)COc1c(C(C)(C)C)cc([N+](=O)[O-])c(C)c1[N+](=O)[O-]
inactive: [8] 100 % of control | [9] 91 % of control | [10] 106 % of control

CC(=O)Nc1nc2oc(C)nc2c(=O)[nH]1
inactive: dose: 100.0 mg/kg/injection, schedule: Q01DX001 (ip), vehicle: Klucel (hydroxypropylcellulose) (HPC) 104 % of control | dose: 200.0 mg/kg/injection, schedule: Q01DX001 (ip), vehicle: Klucel (hydroxypropylcellulose) (HPC) 97 % of control | dose: 400.0 mg/kg/injection, schedule: Q01DX001 (ip), vehicle: Klucel (hydroxypropylcellulose) (HPC) 103 % of control

c1ccc(CC[P+](c2ccccc2)(c2ccccc2)c2ccccc2)cc1
inactive: [11] 97 % of control | [12] 96 % of control | dose: 3.13 mg/kg/injection, schedule: Q01DX009 (ip), vehicle: Klucel (hydroxypropylcellulose) (HPC) 92 % of control | dose: 12.5 mg/kg/injection, schedule: Q04DX003 (ip), vehicle: Klucel (hydroxypropylcellulose) (HPC) 101 % of control | dose: 25.0 mg/kg/injection, schedule: Q04DX003 (ip), vehicle: Klucel (hydroxypropylcellulose) (HPC) 103 % of control

CCCCCC[P+](c1ccccc1)(c1ccccc1)c1ccccc1
inactive: dose: 6.25 mg/kg/injection, schedule: Q01DX009 (ip), vehicle: saline 99 % of control | dose: 6.25 mg/kg/injection, schedule: Q04DX003 (ip), vehicle: saline 101 % of control | dose: 12.5 mg/kg/injection, schedule: Q01DX009 (ip), vehicle: saline 107 % of control | dose: 12.5 mg/kg/injection, schedule: Q04DX003 (ip), vehicle: saline 100 % of control | dose: 25.0 mg/kg/injection, schedule: Q01DX009 (ip), vehicle: saline 98 % of control | dose: 25.0 mg/kg/injection, schedule: Q04DX003 (ip), vehicle: saline 103 % of control

O=C(Nc1ccc(O)cc1)c1ccc(C(=O)Nc2ccc(O)cc2)cc1
inactive: dose: 15.0 mg/kg/injection, schedule: Q01DX Z (ip), vehicle: methylcellulose (MC) 112 % of control | dose: 30.0 mg/kg/injection, schedule: Q01DX Z (ip), vehicle: methylcellulose (MC) 93 % of control | dose: 60.0 mg/kg/injection, schedule: Q01DX Z (ip), vehicle: methylcellulose (MC) 98 % of control | dose: 120.0 mg/kg/injection, schedule: Q01DX Z (ip), vehicle: methylcellulose (MC) 98 % of control

O=C(COCC(=O)N/N=C/c1cccc([N+](=O)[O-])c1)N/N=C/c1cccc([N+](=O)[O-])c1
inactive: [13] 92 % of control | [14] 95 % of control | dose: 400.0 mg/kg/injection, schedule: Q01DX009 (ip), vehicle: Klucel (hydroxypropylcellulose) (HPC) 106 % of control

CC(=O)C(Sc1ccccc1[N+](=O)[O-])C(C)=O.[Cr]
inactive: dose: 50.0 mg/kg/injection, schedule: Q01DX001 (ip), vehicle: other 94 % of control | [5] 88 % of control | [7] 88 % of control

CNC(=O)Nc1cccc([N+](=O)[O-])c1OC
inactive: [8] 100 % of control | [9] 103 % of control | [10] 106 % of control

CCC1(C)CCC2C(=CCC3C(C)(C(=O)O)CCCC23C)C1 (centres undefined)
inactive: [15] 91 % of control | [16] 93 % of control | [17] 86 % of control

FC1(F)SC2C3CC(C4CCC=C43)C2C1(F)F (centres undefined)
inactive: [11] 96 % of control | [12] 93 % of control | dose: 1.56 mg/kg/injection, schedule: Q04DX003 (ip), vehicle: Klucel (hydroxypropylcellulose) (HPC) 102 % of control | dose: 3.13 mg/kg/injection, schedule: Q04DX003 (ip), vehicle: Klucel (hydroxypropylcellulose) (HPC) 100 % of control

Cc1ccc(Cl)cc1NC(=O)c1cccc(C(=O)Nc2cc(Cl)ccc2C)c1
inactive: dose: 50.0 mg/kg/injection, schedule: Q01DX009 (ip), vehicle: Klucel (hydroxypropylcellulose) (HPC) 91 % of control | [13] 100 % of control | dose: 100.0 mg/kg/injection, schedule: Q04DX003 (ip), vehicle: Klucel (hydroxypropylcellulose) (HPC) 98 % of control | [14] 91 % of control | dose: 200.0 mg/kg/injection, schedule: Q04DX003 (ip), vehicle: Klucel (hydroxypropylcellulose) (HPC) 88 % of control

CC1(c2ccncc2)OCCO1
inactive: dose: 100.0 mg/kg/injection, schedule: Q01DX001 (ip), vehicle: saline 97 % of control | dose: 200.0 mg/kg/injection, schedule: Q01DX001 (ip), vehicle: saline 101 % of control

CCOC(CS(=O)(=O)CC(N)=O)OCC
inactive: [15] 97 % of control | [16] 95 % of control | [17] 92 % of control

CCOC(=O)/C=C/Sc1ccccc1
inactive: dose: 12.5 mg/kg/injection, schedule: Q04DX002 (ip), vehicle: saline with Tween-80 98 % of control | dose: 25.0 mg/kg/injection, schedule: Q04DX002 (ip), vehicle: saline with Tween-80 98 % of control | dose: 50.0 mg/kg/injection, schedule: Q04DX002 (ip), vehicle: saline with Tween-80 91 % of control

CCOc1cc(C)c2cccc(C)c2n1
inactive: [1] 88 % of control | [5] 95 % of control | [2] 96 % of control | [6] 106 % of control | dose: 400.0 mg/kg/injection, schedule: Q01DX001 (ip), vehicle: carboxymethylcellulose (CMC) 98 % of control

O=C(OCCOc1ccc(Cl)cc1Cl)c1cc(I)cc(I)c1I
inactive: [8] 111 % of control | [9] 101 % of control | [10] 104 % of control
